Where two headings read alike, the source gives them in different places.
Tests used:
PDIA3 [1] = biological target: T1, PDIA3 (Homo sapiens, UniProt P30101); set-up: method as in Trnková et al. [30]; conditions: Figure 8, unit inferred; ref Trnková et al. [30]; read-out: Dissociation constant (Kd); cited from earlier work
T1 construct: made in house; host or cells: E. coli BL21 (vector pET21)
T1 sequence (P30101 25-505): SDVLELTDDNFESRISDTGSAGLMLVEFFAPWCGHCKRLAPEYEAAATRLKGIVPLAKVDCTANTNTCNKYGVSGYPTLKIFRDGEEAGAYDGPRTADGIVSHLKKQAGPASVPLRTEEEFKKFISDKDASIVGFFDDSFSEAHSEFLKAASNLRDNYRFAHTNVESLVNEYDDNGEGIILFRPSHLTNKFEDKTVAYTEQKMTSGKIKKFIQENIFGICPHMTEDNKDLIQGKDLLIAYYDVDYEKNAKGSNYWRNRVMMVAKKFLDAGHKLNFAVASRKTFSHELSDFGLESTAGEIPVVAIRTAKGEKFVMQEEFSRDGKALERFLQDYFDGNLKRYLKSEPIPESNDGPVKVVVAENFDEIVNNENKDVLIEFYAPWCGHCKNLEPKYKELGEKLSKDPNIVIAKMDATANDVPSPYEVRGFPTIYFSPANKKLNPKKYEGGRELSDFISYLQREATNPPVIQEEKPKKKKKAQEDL

PDIA3 [2] = biological target: T1, PDIA3; conditions: cited from earlier work
PDIA3 [3] = biological target: T1, PDIA3; conditions: cited from earlier work; remark: listed apart in the source
PDIA3 [4] = biological target: PDIA3; set-up: method as in PMID 24530445; conditions: cited from earlier work
PDIA3 [5] = biological target: T1, PDIA3; assay: DNA binding activity by EMSA; type: biochemical; conditions: flavonoid 0 to 50 μM
Method: EMSA assay was performed using a 79-bp […] obtained by PCR as previously described. Amplified DNA was end-labeled by using 5-fluorescein-modified primers. 10 ng of DNA fragment was incubated with 1 μg of PDIA3 or a′ domain, in presence of increasing concentration of flavonoids (from 0 to 50 μM). Controls were performed using DNA alone and in the presence of each flavonoid. All tests were performed in 20 μl mixtures containing 20 mM Tris-HCl, pH 7.5, 50 mM NaCl, and 10% (v/v) glycerol. Samples were incubated for 1 hour at 25°C and then resolved on 5% polyacrylamide gels in 0,25% TBE buffer (22.5 mM Tris-borate, 5 mM EDTA, pH 8.3) at 150 V. Gel images were recorded using a ChemiDoc MP Imaging System (BioRad) equipped with an epi-blue excitation lamp and a 520 nm emission filter.

PDIA3 [6] = biological target: T1, PDIA3; assay: Differential scanning fluorimetry (thermal stability, SYPRO Orange); type: binding; conditions: 50 μM flavonoid, reduced PDIA3 1 μM
Method: Protein stability was tested by the fluorescence-based thermal stability assay or differential scanning fluorimetry (DSF) developed by Pantoliano and coworkers. DSF records the fluorescence emission signal from the binding of a dye (SYPRO orange) to the exposed hydrophobic patches upon protein unfolding. Fluorescence measurements were performed using a CFX96 Connect RT-PCR instrument (BioRad). 18 μl aliquots of protein solution (1 μM), freshly diluted in Tris Buffered saline (50 mM TrisHCl, pH 8.0, 150 mM NaCl) containing 0.1 mM DTT, 0.2 mM EDTA, and 1 : 1000 dilution of SYPRO Orange (50 mM stock solution in DMSO), were distributed in a 96-well plate. Sample wells were addition of increasing concentration (up to 50 μM) of individual flavonoid by adding 2 μl of 10-fold concentrated stock solutions freshly prepared. As control, the protein solution was added with 2 μl of the dilution buffer. A melting point analysis was recorded increasing the temperature from 20 to 95°C with an increment of 0.5°C and reading, at each temperature, the fluorescence in fluorescence resonance energy transfer mode (FRET). Each measure was the average of three sample wells reading and each DSF experiment was repeated at least three times. To calculate T m values, DSF data from the melting curve were exported and fitted to Boltzman equation using GraphPad software. Effect of flavonoids was evaluated comparing the T m values in presence and absence of each molecule.

PDIA3 [7] = biological target: T1, PDIA3; assay: Disulfide reductase activity with DiE-GSSG fluorogenic probe; type: biochemical; conditions: DiE-GSSG substrate; for Inhibition of disulfide reductase (redox) activity: 20 μM flavonoid (Figure 7)
Method: Disulfide reductase activity of ERp57 was monitored by sensitive fluorescent assay using dieosin glutathione disulfide (DiE-GSSG) as fluorogenic probe. DiE-GSSG was synthesized by the reaction of eosin isothiocyanate with oxidized glutathione (GSSG) according to the method of Raturi and Mutus with some modifications. DiE-GSSG concentration was determined spectrophotometrically (ℇ 525 = 88,000 M^-1 cm^−1). Disulfide reductase activity was assayed in a reaction buffer containing 2 mM EDTA, 150 nM DiE-GSSG, and 5 μM DTT in PBS. A 20 μl aliquot of a stock solution of PDIA3 (1 μM) was added to the reaction mixture and DiE-GSSG reduction was monitored at 545 nm with excitation at 520 nm, at 25°C with continuous stirring. Reductase activity was calculated as the initial velocity in fluorescence increase. To test the effect of flavonoids on PDIA3 activity, the protein stock solution was previously incubated for 15 minutes at room temperature with different concentrations of each flavonoid and then a 20 μl aliquot subjected to assay in a reaction buffer containing the same concentration of the flavonoid.
Fluorescence quenching constant (K SV) values were given as means ± standard deviation and values of disulfide reductase activity were expressed in % of control sample ± relative standard deviation. All measurements were performed at least three times. Dunnett's test was used to compare the obtained reductase activity data with the activity of the untreated protein and a p value of <0.01 was considered as statistically significant.

PDIA3 [8] = biological target: T1, PDIA3; assay: Fluorescence quenching titration of PDIA3 intrinsic fluorescence; type: binding
Method: Quantitative analysis of the interaction between individual flavonoids and PDIA3 was performed by fluorimetric titration. […] Briefly, solution of PDIA3 (0.5 μM) or a and a′ domains (1 μM) in phosphate buffered saline (PBS) containing DTT 0.1 mM and EDTA 0.2 mM were titrated in quartz cuvette by stepwise additions, at 5 min time intervals, of individual flavonoid solution (1 mM in PBS/ethanol 50 : 50 v/v freshly prepared from a 20 mM stock solution in DMSO). […] To minimize the inner-filter effect we limited the highest concentration reached in the titration test up to 10 μM. All experiments were carried out at 25°C. Each spectrum was the mean of three repeated scans. Fluorescence spectra of appropriate blanks (flavonoids without proteins) were recorded under the same experimental conditions and subtracted from the corresponding flavonoid-protein system to correct the fluorescence background.
Quenching analysis was performed on PDIA3 (0.5 μM), in the reduced form, by adding stepwise increasing concentration of each molecule and recording the protein fluorescence spectra. For some flavonoids the analysis was extended to isolate a′ domain (1 μM), always in the reduced form. […] For each ligand molecule the Stern-Volmer quenching constant was obtained by linear regression of plots of F 0/F versus [L].
The Stern-Volmer quenching constant may be expressed as K SV = K q τ 0, where K q is the quencher rate coefficient and τ 0 is the average lifetime of the emissive excited state of the protein in the absence of the quencher.
The number of binding sites (n) and the binding constant (K b) were obtained by plotting log((F 0 − F)/F) versus log(1/([L t] − n(F 0 − F)[P t]/F 0)) using the reiterative calculation process described by Sun et al., assuming a similar affinity for each binding site.

## O=C(OC1Cc2c(O)cc(O)cc2OC1c1cc(O)c(O)c(O)c1)c1cc(O)c(O)c(O)c1 (stereo not shown) [Epigallocatechin gallate, epigallocatechin gallate]
PDIA3 [1]
  Kd: 45.8 µM
PDIA3 [2]; ref Trnková et al. [30]
  Effect on DNA binding: Inhibition
PDIA3 [3]; Figure 8, ref Trnková et al. [30]
  Inhibition of redox activity (%): 21%

## COc1cc(C2Oc3cc([C@H]4Oc5cc(O)cc(O)c5C(=O)[C@@H]4O)ccc3OC2CO)ccc1O (stereo partly shown) [silibinin]
PDIA3 [4]
  dissociation constant: within micromolar range
PDIA3 [2]
  Effect on DNA binding capability of PDIA3: no effect
PDIA3 [3]
  Effect on redox activity of PDIA3: no effect

## O=c1c(O)c(-c2ccc(O)c(O)c2)oc2cc(O)cc(O)c12 [Quercetin, quercetin]
PDIA3 [5]
  Effect on DNA binding activity of PDIA3: None
PDIA3 [6]
  Increase in melting temperature (T m) of PDIA3: increased more than three degrees
PDIA3 [7]
  Inhibition of disulfide reductase (redox) activity: 18%
  Effect on disulfide reductase activity (in words): some inhibitory effect
PDIA3 [7]; listed as quercetin
  Inhibition of disulfide reductase (redox) activity: approximately 20%
PDIA3 [8]; 0.5∗10^−6 M PDIA3 in reduced conditions, pH 7.4, 25°C, flavonoid 0 to 10∗10^−6 M, mean and standard deviation
  Stern-Volmer constant (K SV): 46226 ± 1406 M⁻¹
PDIA3 [8]; Figure 8, no unit printed in the picture, read-out: Dissociation constant (Kd)
  Kd: 25.6 µM
PDIA3 [8]; K SV = K q τ0 with τ0 of the order of 10^−8 s, reduced PDIA3, pH 7.4, 25°C
  bimolecular quenching rate constant (K q): 4.62e+12 M⁻¹ s⁻¹
PDIA3 [8]; K d = 1/K b, reduced PDIA3, pH 7.4, 25°C, read-out: dissociation constant (K d)
  Kd: 25.6 µM
PDIA3 [8]; equation of Bi et al., reiterative calculation of Sun et al., reduced PDIA3, pH 7.4, 25°C
  binding constant (K b): 39000 M⁻¹
